Here are results for 2 compounds from patent US20250275995A1, “NICOTINAMIDE RIBOSIDE DOSAGE REGIMEN FOR TREATING PARKINSON'S DISEASE” (VESTLANDETS INNOVASJONSSELSKAP AS (VIS), priority 2022, published 2025).

The subject of one data set is blood NAD^+ levels. The data set is described as follows: NAD-brain pharmacokinetic study: whole blood NAD+ response. Type of data set: in vivo, human. As to the method:
The NAD-brain study performs a parallel assessment of NAD replenishment therapy pharmacokinetics in the blood and brain of healthy human subjects and subjects with Parkinson's disease (PD). A total of 10 healthy individuals (5 men and 5 women) and 10 individuals with PD (5 men and 5 women) undergo repeated blood sampling and 31P-MRS brain scans during two 20-day periods, each of which starts with 8 days of daily intake of NR 600 mg×2, or NMN 600 mg×2. The two 20-day period is 14 days apart to allow for washout of the previous compound. Blood is analyzed for NR and NAD-metabolites using HPLC-MS. By this approach, we measured the simultaneous change in NAD-metabolism overtime in blood and brain and establish blood and brain pharmacokinetics for NAD replenishment therapy in humans.
NR (Niagen®, Chromadex) at a dose of 600 mg×2 daily). NMN (Restorin®, from Seragon Pharmaceutics, or MIB-626 from Metro International Biotech) at a dose of 600 mg×2 daily.
• At screening, participants are assessed for eligibility, inclusion/exclusion criteria, medical history and concomitant medication is recorded, and informed consent signed. • The NAD-brain study performs a parallel assessment of NAD replenishment therapy pharmacokinetics in the blood and brain of healthy human subjects and subjects with Parkinson's disease (PD). Healthy individuals and individuals with PD undergo repeated blood sampling and 31P-MRS brain scans during two 20-day periods, each of which starts with 8 days of daily intake of NR 600 mg×2, or NMN 600 mg×2 (Table 10). • For each 20-day period the testing (i.e., scanning and blood draw) frequency is shown in Table 10, below. The two 20-day periods are 14 days apart to allow for washout of the previous compound.
Blood is analyzed for NR and NAD-metabolites using HPLC-MS metabolomics. Snap-frozen whole blood is used for the analysis of NAD^+. Blood is drawn from the participant in EDTA tube (VACUETTE® TUBE 2 ml K2E K2EDTA). The EDTA tube is gently inverted at least 10 times without shaking; 8×200 μl of blood from the EDTA tube is aliquoted into 8×0.5 ml micro tubes; these are closed, and all the micro tubes are immerse simultaneously in liquid nitrogen within 2 min from when blood has started flowing into the EDTA tube; then transferred frozen to −80° C. freezer for storage; stored at −80C in freezer-compatible cardboard or plastic storage boxes; and shipped on dry ice.
This is a pharmacokinetic (PK) study where 6 healthy individuals (3 male and 3 female): • 1) Received NR 1200 mg daily (600 mg×2) for 8 days, followed by an additional 11 days follow up, while undergoing serial blood and brain NAD-measurement. • 2) Received NMN 1200 mg daily (600 mg×2) for 8 days, followed by an additional 11 days follow up, while undergoing serial blood and brain NAD-measurement.
The individuals were mixed, so that in stage-1 three individuals received NR and three individuals received NMN, then in stage-2 they switched (Cross-over design). There were almost three weeks (20 days) of washout between the last dose of the first compound, and before the first dose of the second compounds.

In the next data set the test system is brain NAD levels. In words: NAD-brain pharmacokinetic study: brain NAD by 31P-MRS. Type of data set: in vivo, human. The conditions noted are these: 11 days after last dose, 1200 mg daily for 8 days. As to the method: • At screening, participants are assessed for eligibility, inclusion/exclusion criteria, medical history and concomitant medication is recorded, and informed consent signed. • The NAD-brain study performs a parallel assessment of NAD replenishment therapy pharmacokinetics in the blood and brain of healthy human subjects and subjects with Parkinson's disease (PD). Healthy individuals and individuals with PD undergo repeated blood sampling and 31P-MRS brain scans during two 20-day periods, each of which starts with 8 days of daily intake of NR 600 mg×2, or NMN 600 mg×2 (Table 10). • For each 20-day period the testing (i.e., scanning and blood draw) frequency is shown in Table 10, below. The two 20-day periods are 14 days apart to allow for washout of the previous compound. This is a pharmacokinetic (PK) study where 6 healthy individuals (3 male and 3 female): • 1) Received NR 1200 mg daily (600 mg×2) for 8 days, followed by an additional 11 days follow up, while undergoing serial blood and brain NAD-measurement. • 2) Received NMN 1200 mg daily (600 mg×2) for 8 days, followed by an additional 11 days follow up, while undergoing serial blood and brain NAD-measurement. The individuals were mixed, so that in stage-1 three individuals received NR and three individuals received NMN, then in stage-2 they switched (Cross-over design). There were almost three weeks (20 days) of washout between the last dose of the first compound, and before the first dose of the second compounds. In the brain, total NAD (NAD^++NADH) levels were measured by 31P-MRS as previously described^19. […] 19 Brakedal, B. et al. The […] study: A randomized phase I trial of nicotinamide riboside supplementation in Parkinson's disease. Cell Metab 34, 396-407.e6 (2022).

The next data set deals with adult humans. Particulars: dosages above 50-100 mg; cited from earlier work.

Turning to `NC(=O)c1ccc[n+]([C@@H]2O[C@H](COP(=O)([O-])O)[C@@H](O)[C@H]2O)c1` [NMN, Nicotinamide Mononucleotide], in the data set on blood NAD^+ levels (1200 mg daily (600 mg×2) for 8 days, 6 healthy individuals), the “blood NAD^+ levels” value is listed as “increased in all individuals”. For the same compound, in the data set on blood NAD^+ levels (1200 mg daily for 8 days, last dose morning of day 8), the “day of maximal NAD levels in the blood” value was determined as 8 days. Also, in the data set on blood NAD^+ levels (after 8 days of precursor intake, 1200 mg daily), the “plateau of blood NAD^+ levels” value is given as “did not plateau after 8 days”. Besides, in the data set with brain NAD levels, the “NAD levels at day 19” value is “returned to baseline by day 19”.
As for `O=C(O)c1cccnc1` [nicotinic acid], the “flushing with NAD precursor supplementation” value in the data set with adult humans is “painful flushing”.
